Results taken from patent publication US9345703B2, “Kappa opioid receptor effectors and uses thereof” (University of Kansas, priority 2011, dated 2016).

Columns and labels:
Type in all cases: cell-based
KOR [1] = biological target: T1, KOR (Homo sapiens, UniProt P41145); assay: High content imaging based β-arrestin translocation assay, KOR agonist (KOR HCS); details: n = 2, read-out: Average Potency KOR HCS
Description: (§1) In this campaign, two assay platforms were employed to evaluate KOR activity and selectivity: the KOR1 DISCOVERX β-Arrestin […] assay and an imaging based β-arrestin translocation assay for confirmatory and selectivity assays. The KOR1 DISCOVERX β-Arrestin […] assay is a commercial platform for direct measurement of GPCR (G protein-coupled receptor) activation by detection of β-Arrestin binding to the KOR. […] In cells that stably express these fusion proteins, ligand stimulation results in the recruitment of β-Arrestin by the GPCR. This interaction encourages the complementation of the two β-galactosidase fragments resulting in the formation of a functional enzyme that converts substrate in the assay medium to a detectable signal. The imaging based high-content β-arrestin translocation assay is based upon the redistribution of β-Arrestin linked to green fluorescent protein (GFP) to the cell surface and detection (Barak, et al. (1997) J. Biol. Chem. 272:27497-27500).
(§2) Initially, a portion (approximately 290,000 compounds) of the MLSMR compound collection was tested in the KOR1 DISCOVERX β-arrestin primary kappa opioid (KOP) agonist and antagonist screens (PUBCHEM AID 1777 and 1778, respectively) at a single concentration point (10 μM). […] These compounds were concurrently tested in a β-galactosidase counterscreen assay (PUBCHEM AID 1966) to assess the possibility that these compounds might inhibit the reporting enzyme. […] The KOR:DOR:MOR selectivity of the compounds was determined using the analogous β-arrestin translocation assays for the DOR (PUBCHEM AID 2370 and 2357, for agonists and antagonist, respectively) and the MOR (PUBCHEM AID 2352 and 2420, for agonists and antagonists, respectively).

MOR = MOR (Homo sapiens, UniProt P35372); assay: High content imaging based β-arrestin translocation assay, MOR agonist (MOR HCS); details: n = 2, read-out: Average Potency MOR HCS
Description: as §1, §2

KOR [2] = biological target: T1, KOR; assay: DISCOVERX β-arrestin […] assay, agonist mode (KOR DRx); details: for EC50: agonist; for Emax (%): at highest concentration tested, compared to dynorphin A (Emax=100%)
Description: as §1, with “signal.” for “signal. The imaging based high-content β-arrestin translocation assay is based upon the redistribution of β-Arrestin linked to green fluorescent protein (GFP) to the cell surface and detection (Barak, et al. (1997) J. Biol. Chem. 272:27497-27500).”

[3] = n = 3, read-out: Average Potency KOR DRx
[4] = n = 4, Table 11, read-out: Potency, EC50 (DRx)

T1 sequence (P41145 whole entry, the tested form may be a part): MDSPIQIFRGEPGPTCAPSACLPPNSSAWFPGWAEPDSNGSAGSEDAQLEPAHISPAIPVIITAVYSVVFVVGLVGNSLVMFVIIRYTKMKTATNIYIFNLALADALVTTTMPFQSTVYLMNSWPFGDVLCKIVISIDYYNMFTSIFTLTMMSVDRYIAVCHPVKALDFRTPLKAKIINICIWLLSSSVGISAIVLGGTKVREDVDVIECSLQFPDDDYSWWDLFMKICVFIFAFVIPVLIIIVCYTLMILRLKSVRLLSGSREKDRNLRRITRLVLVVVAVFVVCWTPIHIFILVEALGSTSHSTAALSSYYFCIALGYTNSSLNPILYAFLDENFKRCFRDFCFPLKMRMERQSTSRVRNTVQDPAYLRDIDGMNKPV
Chain of MOR (P35372 whole entry): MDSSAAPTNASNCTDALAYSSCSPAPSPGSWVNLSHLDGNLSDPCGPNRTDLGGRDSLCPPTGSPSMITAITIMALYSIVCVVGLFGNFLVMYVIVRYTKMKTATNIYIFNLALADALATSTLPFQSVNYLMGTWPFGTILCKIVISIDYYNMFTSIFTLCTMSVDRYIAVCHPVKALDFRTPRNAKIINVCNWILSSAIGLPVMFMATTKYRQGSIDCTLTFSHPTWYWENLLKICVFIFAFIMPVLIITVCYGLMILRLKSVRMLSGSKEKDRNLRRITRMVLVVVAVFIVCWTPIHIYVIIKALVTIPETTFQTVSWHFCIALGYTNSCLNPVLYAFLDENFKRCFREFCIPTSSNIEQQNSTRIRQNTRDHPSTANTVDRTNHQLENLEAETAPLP

SMILES	EC50 (KOR [1]) [µM]	EC50 (MOR) [µM]	Emax (KOR [2]) [%]	EC50 (KOR [2]; [3]) [µM]	Emax (%) (KOR [2])	EC50 (KOR [2]; [4]) [µM]
CC(C)(C)c1ccc(CSc2nnc(-c3ccccn3)n2Cc2ccco2)cc1 [2{6}]	0.6	> 32	~100	2.01 ± 0.07	–	–
Clc1ccc(CSc2nnc(-c3ccccn3)n2Cc2cccs2)cc1Cl [2{9}, 2-(5-((3,4-Dichlorobenzyl)thio)-4-(thiophen-2-ylmethyl)-4H-1,2,4-triazol-3-yl)pyridine]	0.43	> 32	~135	0.73 ± 0.11	–	–
Clc1ccc(CSc2nnc(-c3ccccn3)n2Cc2ccco2)c(Cl)c1 [Compound 2{1}]	0.93	> 32	–	1.86 ± 0.07	~100	–
Clc1ccc(CSc2nnc(-c3ccccn3)n2Cc2cccs2)c(Cl)c1 [Compound 2{2}]	8.11	> 32	–	2.27 ± 0.46	~120	–
Brc1ccc(CSc2nnc(-c3ccccn3)n2Cc2ccco2)cc1 [Compound 2{3}]	1.36	> 32	–	1.92 ± 0.05	~100	–
Brc1ccc(CSc2nnc(-c3ccccn3)n2Cc2cccs2)cc1 [Compound 2{4}]	1.1	> 32	–	1.85 ± 0.11	~185	–
Clc1cccc(CSc2nnc(-c3ccccn3)n2Cc2ccco2)c1 [Compound 2{7}]	3.63	> 32	~100	6.76 ± 0.01	–	–
FC(F)(F)c1cc(CSc2nnc(-c3ccccn3)n2Cc2ccco2)ccc1Cl [Compound 2{10}]	0.46	> 32	–	0.5	~122	–
Cc1ccc(CSc2nnc(-c3ccccn3)n2Cc2cccs2)cc1 [Compound 2{13}]	2.38	> 32	–	3.59 ± 0.3	~170	–
FC(F)(F)c1ccc(CSc2nnc(-c3ccccn3)n2Cc2ccco2)cc1 [Compound 2{14}]	1.25	> 32	–	2.77	~166	–
FC(F)(F)c1ccc(CSc2nnc(-c3ccccn3)n2Cc2cccs2)cc1 [Compound 2{15}]	0.6	> 32	–	1.23	~149	–
Fc1cc(F)cc(CSc2nnc(-c3ccccn3)n2Cc2ccco2)c1 [Compound 2{16}]	21	> 32	–	7.89	~104	–
Cc1cc(C)c(CSc2nnc(-c3ccccn3)n2Cc2ccco2)c(C)c1 [Compound 2{18}]	–	> 32	–	–	~100	–
Cc1cc(C)c(CSc2nnc(-c3ccccn3)n2Cc2cccs2)c(C)c1 [Compound 2{19}]	9.5	> 32	–	> 20	–	–
Fc1ccc(CSc2nnc(-c3ccccn3)n2Cc2cccs2)c(F)c1 [Compound 2{24}]	5.68	> 32	–	6.74 ± 0.97	~155	–
O=[N+]([O-])c1ccc(CSc2nnc(-c3ccccn3)n2Cc2ccco2)cc1 [Compound 2{25}]	2.35	> 32	–	2.48	~120	–
O=[N+]([O-])c1ccc(CSc2nnc(-c3ccccn3)n2Cc2cccs2)cc1 [Compound 2{26}]	0.96	> 32	–	1.24	~128	–
N#Cc1ccc(CSc2nnc(-c3ccccn3)n2Cc2ccco2)cc1 [Compound 2{27}]	19	> 32	–	6.79	~105	–
N#Cc1ccc(CSc2nnc(-c3ccccn3)n2Cc2cccs2)cc1 [Compound 2{28}]	3.5	> 32	–	4.64	~142	–
COC(=O)c1ccc(CSc2nnc(-c3ccccn3)n2Cc2ccco2)cc1 [Compound 2{29}]	18.5	> 32	–	6.62	~125	–
COC(=O)c1ccc(CSc2nnc(-c3ccccn3)n2Cc2cccs2)cc1 [Compound 2{30}]	6	> 32	–	6.14	~154	–
CC(=O)Oc1ccc(CSc2nnc(-c3ccccn3)n2Cc2ccco2)cc1 [Compound 2{31}]	> 32	> 32	–	> 20	–	–
CC(=O)Oc1ccc(CSc2nnc(-c3ccccn3)n2Cc2cccs2)cc1 [Compound 2{32}]	> 32	> 32	–	> 20	–	–
CC(C)c1ccc(CSc2nnc(-c3ccccn3)n2Cc2ccco2)cc1 [Compound 2{33}]	2.8	> 32	–	5.97	165	–
COc1cccc(CSc2nnc(-c3ccccn3)n2Cc2cccs2)c1 [Compound 2{38}]	12.2	> 32	–	8.72	~100	–
Cc1c(CSc2nnc(-c3ccccn3)n2Cc2ccco2)cccc1[N+](=O)[O-] [Compound 2{39}]	12	> 32	–	8.21	~128	–

SMILES	EC50 (KOR [1]) [µM]	EC50 (MOR) [µM]	Emax (KOR [2]) [%]	EC50 (KOR [2]; [3]) [µM]	Emax (%) (KOR [2])	EC50 (KOR [2]; [4]) [µM]
Cc1c(CSc2nnc(-c3ccccn3)n2Cc2cccs2)cccc1[N+](=O)[O-] [Compound 2{40}]	4.2	> 32	–	5.81	~105	–
Fc1ccc(CSc2nnc(-c3ccccn3)n2Cc2ccco2)c(F)c1F [Compound 2{43}]	5.3	> 32	–	7	~140	–
Fc1ccc(CSc2nnc(-c3ccccn3)n2Cc2cccs2)c(F)c1F [Compound 2{44}]	1.7	> 32	–	3.04	~115	–
Fc1ccc(CSc2nnc(-c3ccccn3)n2Cc2ccco2)c(C(F)(F)F)c1 [Compound 2{45}]	5.4	> 32	–	8.27	~138	–
Fc1ccc(CSc2nnc(-c3ccccn3)n2Cc2cccs2)c(C(F)(F)F)c1 [Compound 2{46}]	2.25	> 32	–	4.46	~109	–
Clc1ccccc1CSc1nnc(-c2ccccn2)n1Cc1cccs1 [Compound 2{48}]	4.1	> 32	–	10.2	~100	–
COc1ccc(Cn2c(SCc3ccccc3)nnc2-c2ccccn2)cc1 [Entry 1]	–	–	–	–	–	> 20
COc1ccc(Cn2c(SCc3ccc(Br)cc3)nnc2-c2ccccn2)cc1 [Entry 2]	–	–	–	–	–	> 20
COc1ccc(Cn2c(SCc3ccc(Cl)c(Cl)c3)nnc2-c2ccccn2)cc1 [Entry 3]	–	–	–	–	–	11.8
COc1ccc(Cn2c(SCc3ccc(Cl)c(C(F)(F)F)c3)nnc2-c2ccccn2)cc1 [Entry 4]	–	–	–	–	–	> 19.7
c1ccc(CSc2nnc(-c3ccccn3)n2Cc2ccccc2)cc1 [Entry 5]	–	–	–	–	–	> 20
Brc1ccc(CSc2nnc(-c3ccccn3)n2Cc2ccccc2)cc1 [Entry 6]	–	–	–	–	–	4.06
Clc1ccc(CSc2nnc(-c3ccccn3)n2Cc2ccccc2)cc1Cl [Entry 7]	–	–	–	–	–	1.24
FC(F)(F)c1cc(CSc2nnc(-c3ccccn3)n2Cc2ccccc2)ccc1Cl [Entry 8]	–	–	–	–	–	2.22
c1ccc(CSc2nnc(-c3ccccn3)n2Cc2cccnc2)cc1 [Entry 9]	–	–	–	–	–	> 20
Brc1ccc(CSc2nnc(-c3ccccn3)n2Cc2cccnc2)cc1 [Entry 10]	–	–	–	–	–	8.51
Clc1ccc(CSc2nnc(-c3ccccn3)n2Cc2cccnc2)cc1Cl [Entry 11]	–	–	–	–	–	0.76
Clc1ccccc1Cn1c(SCc2ccccc2)nnc1-c1ccccn1 [Entry 13]	–	–	–	–	–	> 20
FC(F)(F)c1cc(CSc2nnc(-c3ccccn3)n2Cc2ccccc2Cl)ccc1Cl [Entry 16]	–	–	–	–	–	4.3
c1ccc(CSc2nnc(-c3ccncc3)n2Cc2ccco2)cc1 [Entry 17]	–	–	–	–	–	> 20
FC(F)(F)c1cc(CSc2nnc(-c3ccncc3)n2Cc2ccco2)ccc1Cl [Entry 20]	–	–	–	–	–	> 20
Brc1ccc(-c2nnc(SCc3ccccc3)n2Cc2ccco2)cc1 [Entry 21]	–	–	–	–	–	> 20
Brc1ccc(CSc2nnc(-c3ccc(Br)cc3)n2Cc2ccco2)cc1 [Entry 22]	–	–	–	–	–	13.5
Clc1ccc(CSc2nnc(-c3ccc(Br)cc3)n2Cc2ccco2)cc1Cl [Entry 23]	–	–	–	–	–	11
FC(F)(F)c1cc(CSc2nnc(-c3ccc(Br)cc3)n2Cc2ccco2)ccc1Cl [Entry 24]	–	–	–	–	–	13.3
